Assay results reported in patent US20260232636A1, “INHIBITORS OF LRRK2” (Vanderbilt University, priority 2023, published 2026).

Legend:
LRRK2 WT [1] = biological target: T1, LRRK2 WT (Homo sapiens, UniProt Q5S007); experiment: Biochemical LRRK2 LanthaScreen TR-FRET kinase assay, wild type
LRRK2 WT [2] = biological target: T1, LRRK2 WT; experiment: Cellular phospho-LRRK2 S935 HTRF assay, WT-HEK293 cells; format: cell-based; settings: pS935 LRRK2 Cellular Activity Assay; HEK293 cells stably expressing human LRRK2 WT, 2 hr incubation
From the text: This method utilizes two antibodies, europium-Cryptate (donor) antibody and d2-Cryptate (acceptor) antibody, specifically binding to total and phospho S935 of LRRK2, respectively. When two fluorophores are in close proximity, i.e. activation of kinase, time-resolved fluorescence energy transfer (TR-FRET) occurs where a light source excites europium donor, the 615 nm emission by europium then excites d2 acceptor. […] All cell culture reagents were purchased from Life Technologies, and phospho-LRRK2 S935 assay reagents were from Perkin Elmer (#6FLRKPEH). Briefly, the day before the assay, the cells (5,000 cells/20 μL/well) are prepared in the plating medium (growth medium without G418). […] The activities of inhibitors at WT and GS mutant are measured in separate cell plates.
For full enzyme control and maximum enzyme inhibition wells, 600 nL of DMSO and 0.2 mM MLi-2 were transferred, respectively. The final 2× compound plate is prepared by adding 60 μL of plating medium to each well. […] Compounds are incubated for 2 hrs in 37° C. humidified incubators.
During compound incubation, 4× lysis buffer and 100× blocking buffer are diluted to 1× with H2O. After 2 hr incubation, treatment medium is removed using an ELx405 Microplate washer (Agilent), and 16 μL of lysis/blocking buffer is immediately added to each well in entire plates. The plates are sealed with a plate seal, and placed on a plate shaker for 30 min at room temperature with shaking at 200 rpm.
During the lysis step, 1× antibody working solutions are prepared by diluting 40× Eu-Cryptate antibody and d2-antibody in detection buffer. After the cell plates are spun at 100×g for 1 min, 4 μL of antibody solutions is added to each well in entire plates. The plates are sealed with a plate seal, and placed on a plate shaker for 4 hrs at room temperature with shaking at 200 rpm.

T1 sequence (Q5S007 whole entry): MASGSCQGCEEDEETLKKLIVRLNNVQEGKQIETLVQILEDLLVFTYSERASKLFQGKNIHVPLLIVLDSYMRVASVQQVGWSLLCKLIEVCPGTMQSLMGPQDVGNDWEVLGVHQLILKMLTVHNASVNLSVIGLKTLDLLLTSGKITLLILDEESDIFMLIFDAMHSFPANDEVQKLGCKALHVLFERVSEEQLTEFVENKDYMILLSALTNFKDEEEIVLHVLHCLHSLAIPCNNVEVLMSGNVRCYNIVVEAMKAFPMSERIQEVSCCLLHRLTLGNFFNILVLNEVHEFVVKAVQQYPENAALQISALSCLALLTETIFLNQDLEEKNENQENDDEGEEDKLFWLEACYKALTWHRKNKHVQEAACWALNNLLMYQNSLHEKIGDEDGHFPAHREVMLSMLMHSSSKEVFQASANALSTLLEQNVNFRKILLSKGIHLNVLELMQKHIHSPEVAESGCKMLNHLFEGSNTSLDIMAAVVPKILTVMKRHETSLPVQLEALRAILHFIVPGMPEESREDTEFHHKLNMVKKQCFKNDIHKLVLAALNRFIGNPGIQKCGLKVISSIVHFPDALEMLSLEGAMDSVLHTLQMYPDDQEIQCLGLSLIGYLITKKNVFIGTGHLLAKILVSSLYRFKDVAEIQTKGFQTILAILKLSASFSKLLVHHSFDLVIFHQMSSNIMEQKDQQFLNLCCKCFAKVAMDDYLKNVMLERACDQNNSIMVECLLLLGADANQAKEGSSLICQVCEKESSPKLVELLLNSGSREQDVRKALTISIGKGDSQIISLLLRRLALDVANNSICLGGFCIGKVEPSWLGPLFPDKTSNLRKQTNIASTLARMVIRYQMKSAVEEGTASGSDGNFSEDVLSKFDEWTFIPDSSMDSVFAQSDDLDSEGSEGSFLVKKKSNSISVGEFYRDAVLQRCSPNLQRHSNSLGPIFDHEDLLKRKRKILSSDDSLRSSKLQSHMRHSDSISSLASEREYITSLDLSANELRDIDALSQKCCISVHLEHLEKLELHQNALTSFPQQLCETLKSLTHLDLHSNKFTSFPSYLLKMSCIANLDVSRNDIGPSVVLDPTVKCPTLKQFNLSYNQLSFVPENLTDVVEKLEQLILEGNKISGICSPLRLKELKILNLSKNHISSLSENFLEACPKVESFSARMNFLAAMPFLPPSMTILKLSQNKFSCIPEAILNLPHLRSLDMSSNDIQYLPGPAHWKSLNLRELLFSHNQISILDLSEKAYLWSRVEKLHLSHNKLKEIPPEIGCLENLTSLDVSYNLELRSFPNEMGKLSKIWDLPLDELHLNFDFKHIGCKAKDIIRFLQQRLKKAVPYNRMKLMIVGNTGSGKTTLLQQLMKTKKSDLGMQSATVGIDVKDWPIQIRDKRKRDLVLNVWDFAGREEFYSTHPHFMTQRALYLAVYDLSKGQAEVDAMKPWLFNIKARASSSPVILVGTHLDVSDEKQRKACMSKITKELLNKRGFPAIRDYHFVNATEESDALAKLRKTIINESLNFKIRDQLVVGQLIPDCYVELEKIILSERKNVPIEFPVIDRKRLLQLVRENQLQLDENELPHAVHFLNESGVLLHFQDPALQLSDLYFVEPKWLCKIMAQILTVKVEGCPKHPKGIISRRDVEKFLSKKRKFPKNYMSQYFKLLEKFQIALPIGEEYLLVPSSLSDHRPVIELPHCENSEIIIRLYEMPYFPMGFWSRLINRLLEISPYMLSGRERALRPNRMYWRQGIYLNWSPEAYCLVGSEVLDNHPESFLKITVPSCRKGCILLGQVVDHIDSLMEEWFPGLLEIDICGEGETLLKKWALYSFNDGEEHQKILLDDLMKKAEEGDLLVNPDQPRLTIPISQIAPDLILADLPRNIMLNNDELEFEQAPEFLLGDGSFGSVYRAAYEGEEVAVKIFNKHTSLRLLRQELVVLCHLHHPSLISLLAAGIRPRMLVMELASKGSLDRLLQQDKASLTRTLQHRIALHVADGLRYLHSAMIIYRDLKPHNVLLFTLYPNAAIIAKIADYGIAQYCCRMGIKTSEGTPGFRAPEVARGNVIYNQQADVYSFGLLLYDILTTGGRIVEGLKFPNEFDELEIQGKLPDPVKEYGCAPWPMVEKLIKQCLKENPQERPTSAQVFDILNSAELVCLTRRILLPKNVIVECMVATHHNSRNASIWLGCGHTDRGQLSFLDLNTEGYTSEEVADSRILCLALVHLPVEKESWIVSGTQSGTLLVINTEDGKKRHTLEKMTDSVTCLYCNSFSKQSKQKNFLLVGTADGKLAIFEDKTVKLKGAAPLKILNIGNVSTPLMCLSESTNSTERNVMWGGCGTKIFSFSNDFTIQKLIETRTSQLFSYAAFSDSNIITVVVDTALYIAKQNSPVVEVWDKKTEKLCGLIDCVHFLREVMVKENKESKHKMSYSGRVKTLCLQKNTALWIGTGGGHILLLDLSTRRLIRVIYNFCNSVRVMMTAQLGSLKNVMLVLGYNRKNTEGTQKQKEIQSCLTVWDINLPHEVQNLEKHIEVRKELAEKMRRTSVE

| SMILES | IC50 (LRRK2 WT [1]) [nM] | IC50 (LRRK2 WT [2]) [nM] | LRRK2 WT IC50 (LRRK2 WT [2]) |
| --- | --- | --- | --- |
| Cc1cc2cnn(-c3cnn(C)c3)c2cc1C1=C[C@@H]2CNC[C@@H]2C1 (racemic) [Compound 1, (rac)-6-((3aR,6aS)-1,2,3,3a,4,6a-hexahydrocyclopenta[c]pyrrol-5-yl)-5-methyl-1-(1-methyl-1H-pyrazol-4-yl)-1H-indazole] | 113 | 7580 |  |
| Cc1cc2cnn(-c3cnn(C)c3)c2cc1[C@H]1C[C@@H]2CN(C3CCCOC3)C[C@@H]2C1 (mixture of isomers) [Compound 11, (rac)-5-methyl-1-(1-methyl-1H-pyrazol-4-yl)-6-((3aR,5s,6aS)-2-(tetrahydro-2H-pyran-3-yl)octahydrocyclopenta[c]pyrrol-5-yl)-1H-indazole] | 247 | 4340 |  |
| COC(=O)N1CCCC(N2C[C@H]3C[C@H](c4cc5c(cnn5-c5cnn(C)c5)cc4C)C[C@H]3C2)C1 (mixture of isomers) [Compound 18, (rac)-methyl 3-((3aR,5s,6aS)-5-(5-methyl-1-(1-methyl-1H-pyrazol-4-yl)-1H-indazol-6-yl)hexahydrocyclopenta[c]pyrrol-2(1H)-yl)piperidine-1-carboxylate] | 1530 |  | inactive |
| COC(=O)N1CCCC(N2C[C@H]3C[C@@H](c4cc5c(cnn5-c5cnn(C)c5)cc4C)C[C@H]3C2)C1 (mixture of isomers) [Compound 19, (rac)-methyl 3-((3aR,5r,6aS)-5-(5-methyl-1-(1-methyl-1H-pyrazol-4-yl)-1H-indazol-6-yl)hexahydrocyclopenta[c]pyrrol-2(1H)-yl)piperidine-1-carboxylate] | 1220 |  | inactive |
| Cc1cc2cnn(-c3cnn(C)c3)c2cc1[C@H]1C[C@@H]2CN(C(=O)c3snnc3C)C[C@@H]2C1 [Compound 9, (4-methyl-1,2,3-thiadiazol-5-yl)((3aR,5s,6aS)-5-(5-methyl-1-(1-methyl-1H-pyrazol-4-yl)-1H-indazol-6-yl)hexahydrocyclopenta[c]pyrrol-2(1H)-yl)methanone] | 156 | 8430 |  |

Next, values leading:

| IC50 (LRRK2 WT [1]) [nM] | IC50 (LRRK2 WT [2]) [nM] | LRRK2 WT IC50 (LRRK2 WT [2]) | SMILES |
| --- | --- | --- | --- |
| 2290 |  | inactive | Cc1cc2cnn(-c3cnn(C)c3)c2cc1C1=C[C@@H]2CN(C(=O)OC(C)(C)C)C[C@@H]2C1 (racemic) [Compound 2, (rac)-tert-butyl (3aR,6aS)-5-(5-methyl-1-(1-methyl-1H-pyrazol-4-yl)-1H-indazol-6-yl)-3,3a,4,6a-tetrahydrocyclopenta[c] pyrrole-2(1H)-carboxylate] |
| 716 | > 10000 |  | Cc1cc2cnn(-c3cnn(C)c3)c2cc1C1=C[C@@H]2CN(C3CCOCC3)C[C@@H]2C1 (racemic) [Compound 3, (rac)-5-methyl-1-(1-methyl-1H-pyrazol-4-yl)-6-((3aR,6aS)-2-(tetrahydro-2H-pyran-4-yl)-1,2,3,3a,4,6a-hexahydrocyclopenta[c]pyrrol-5-yl)-1H-indazole] |
| 642 |  | inactive | Cc1cc2cnn(-c3cnn(C)c3)c2cc1[C@@H]1C[C@@H]2CN(C3CCCOC3)C[C@@H]2C1 (mixture of isomers) [Compound 12, (rac)-5-methyl-1-(1-methyl-1H-pyrazol-4-yl)-6-((3aR,5r,6aS)-2-(tetrahydro-2H-pyran-3-yl)octahydrocyclopenta[c]pyrrol-5-yl)-1H-indazole] |
| 643 |  | inactive | Cc1cc2cnn(-c3cnn(C)c3)c2cc1[C@@H]1C[C@@H]2CN(C(=O)c3snnc3C)C[C@@H]2C1 [Compound 10, (4-methyl-1,2,3-thiadiazol-5-yl)((3aR,5r,6aS)-5-(5-methyl-1-(1-methyl-1H-pyrazol-4-yl)-1H-indazol-6-yl)hexahydrocyclopenta[c]pyrrol-2(1H)-yl)methanone] |
